The numbers were not newly measured in patent US9789078B2, “Method of topically treating actinic keratosis with ingenol mebutate cycle therapy” (LEO Laboratories Limited, priority 2012, dated 2017), which cites them from elsewhere.

For the data set the following is noted: first treatment cycle, cited from earlier work.

Like-named read-outs stand apart in the source and are kept apart here.

On to `C/C=C(/C)C(=O)O[C@H]1C(C)=C[C@]23C(=O)[C@@H](C=C(CO)[C@@H](O)[C@]12O)[C@H]1[C@@H](C[C@H]3C)C1(C)C` [ingenol mebutate], for which the “time to resolution of local adverse events without sequelae” value (topical application to the face or scalp) was no more than 2 weeks and the “time to resolution of local adverse events without sequelae” value (topical application to the trunk or extremities) is no more than 4 weeks.
